In US10688119B2, “Inhibitors of PCSK9 for treatment of lipoprotein metabolism disorders” (Aarhus Universitet, priority 2015, dated 2020):
Entries after “also recorded” stand apart in the source; their conditions may differ.

B1: mAb 5E11: rat monoclonal antibody against the HSPG binding domain; VH SEQ ID NO: 7, VK SEQ ID NO: 5 (antibody, V domains shown)
VH: EVQLQESGPGLVKPSQSLSLTCSVTGYTITSGYDWSWIRRFPGNTMEWMGDISYSGSTNYNPSLKSRVSITRDTSKNQFFLQLNSVTTGDTATYYCAKLPGWGQGTLVTVSS
VL: DVVLTQTPVFLSVTLGDQTSISCRSSQSLEYSDGYTYLEWYLQKPGQSPQLLIYEVSNRFSGVPDRFIGSGSGTDFTLKISRVEPEDLGVYYCFQGTHDPLTFGSGTKLEIK

How the values were obtained:
PCSK9 = PCSK9 (Homo sapiens, UniProt Q8NBP7); test: Microscale Thermophoresis (MST) equilibrium binding to PCSK9; details: 100 nM labelled PCSK9, PBS+0.05% Tween-20; read-out: KD (affinity for PCSK9, MST)
PCSK9, sequence (Q8NBP7 153-692): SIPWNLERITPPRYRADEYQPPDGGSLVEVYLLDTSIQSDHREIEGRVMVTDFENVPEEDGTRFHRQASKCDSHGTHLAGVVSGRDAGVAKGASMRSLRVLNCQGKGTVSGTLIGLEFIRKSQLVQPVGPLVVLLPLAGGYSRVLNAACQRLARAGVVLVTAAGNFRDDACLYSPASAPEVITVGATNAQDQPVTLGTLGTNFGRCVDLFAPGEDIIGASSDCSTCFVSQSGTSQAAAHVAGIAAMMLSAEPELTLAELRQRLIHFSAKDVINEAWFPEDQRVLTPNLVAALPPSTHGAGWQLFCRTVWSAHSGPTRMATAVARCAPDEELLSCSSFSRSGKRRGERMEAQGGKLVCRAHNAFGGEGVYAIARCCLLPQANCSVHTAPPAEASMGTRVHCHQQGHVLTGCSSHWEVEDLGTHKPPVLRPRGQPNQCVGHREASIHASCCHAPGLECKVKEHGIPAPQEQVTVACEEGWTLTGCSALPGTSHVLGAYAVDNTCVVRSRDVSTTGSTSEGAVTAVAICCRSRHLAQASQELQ
Protocol: PCSK9 was labeled using the MO-L003 Monolith Blue-NHS labeling kit (NanoTemper Technologies) and a labeling efficiency of 1:1 molar ratio of protein to dye was achieved. PCSK9 was applied at a final concentration of 100 nM. […] MST measurements were performed in standard-treated capillaries (NanoTemper Technologies) on a Monolith NT.115 instrument (NanoTemper Technologies) using 20% LED and 80% MST power. Laser on and off times were 5 s and 35 s, respectively. Negative controls were performed using 100 nM of labelled PCSK9 in MST buffer in all 16 capillaries under the same conditions as mentioned above. […] For each binding partner, the sigmoidal dose-response curves were fitted with GraphPad Prism 6 to yield an average KD value.

[1] = patients with elevated serum cholesterol, oral or subcutaneous Pentosan-polysulfate
Protocol: The patient receives subcutaneous injections of 25-500 mg of the composition at intervals of 1-28 days.
A patient with elevated LDL cholesterol is prescribed a statin treatment. […] The patient is then prescribed a treatment with subcutaneous injections of 25-500 mg of a composition comprising a humanized antibody directed against the HSPG binding site in human PCSK9. The injections take place at intervals of 1-28 days.
A patient with elevated LDL cholesterol levels is prescribed administration of a small molecule compound that is designed to block the HSPG binding site in human PCSK9. The compound is administered orally at a dosis of 0.1-30 mg/kg.
In addition to the statin, the patient is administered a compound inhibiting binding of HSPGs to PCSK9. The administration occurs weekly and with a low dose (25-150 mg) of the compound in combination with statins.
Cholesterol levels are then measured.

[2] = in vivo; cited from earlier work
LDLR in HepG2 cells = test: LDLR levels in HepG2 cells by Western blot/densitometry (PCSK9 induced LDLR degradation)
Protocol: Purified PCSK9 variants were tested in a cell assay to test their ability to induce degradation of LDLR compared to wild-type PCSK9. Induction of LDLR degradation was analyzed by incubation of HepG2 cells with wild type PCSK9 (WT) or the above PCSK9 mutants and LDLR levels were assessed by Western blotting. HepG2 cells were seeded at a density 250.000 cells per well in 12-well plates. […] Cells were harvested and lysed following 18 hours incubation and LDLR levels were assessed by Western blotting and quantification by densitometry.
The PCSK9 inhibitory effect of overnight incubation with suramin (0-200 μg/ml) was tested in HepG2 cells (FIG. 9 A-B).

[3] = biological target: T1, R93R96R97R104R105H139 PCSK9 mutant and variants (Homo sapiens, UniProt Q8NBP7, H139A/R104A/R105A/R93A/R96A/R97A); test: immunoprecipitation of 35S-mutant PCSK9 and PCSK9 variants; assay type: binding; details: 500 μl conditioned hybridoma media
T1 construct: expressed in transfected cells
Protocol: (§1) Western blot of GAPDH is shown as loading control. (B) Western Blot showing LDLR levels in liver of mice 1 hour afterintravenous administration of 10 μg PCSK9 alone or in combination with 50 U Heparin. 50 μg membrane preparations were loaded. As control is shown Western Blot for sortilin, a PCSK9 receptor previously shown not to be target of PCSK9 induced degradation. (C) Quantification of B) Bands were quantified by densitometry and dot plot show the individual level of each sample in percent of vehicle (0.9% NaCl) injected controls with mean values and SEM. […] (D) Autoradiography (16 h exposure) showing immunoprecipitation of native human ^35S labeled PCSK9 by serum (1 μl) from three rats immunized with DNA encoding rat PCSK9 with human HSPG binding domain. As negative controls were used preimmune serum from the animals. (E) Western Blot showing LDLR in HepG2 cells after overnight incubation with preimmune or immune IgG (1 μg/ml). […] (F) Autoradiography (16 h exposure) showing immunoprecipitation of human ^35S-PCSK9 by 24 individual mAbs (500 μl conditioned hybridoma media) selected in ELISA screening performed by Aldevron. […] (G) Bar graphs showing LDLR levels (average of 2-4 experiments with SEM) in HepG2 cells incubated with mAbs (1:10 dilution of conditioned hybridoma media) as analysed by Western Blot. Twelve individual mAb clones give an approximately two-fold increase LDLR. (H) Autoradiography (16 h exposure) showing immunoprecipitation of human ^35S-mutant PCSK9 (with R93R96R97R104R105H139 mutated to alanine residues) by 12 individual mAbs (500 μl conditioned hybridoma media) all showing PCSK9 inhibitory effect. As control was used a polyclonal antibody (pAb, AF3888 from R&D systems). […] As control was used R&D Systems AF3888 (pAb).
(§2) These 12 clones were tested to see whether they can bind an R93R96R97R104R105H139 PCSK9 mutant (FIG. 8H).

[4] = tested on: R93R96R97R104R105H139 PCSK9 mutant and variants; test: as above; assay type: binding, human; details: WT, R96R97, R104R105, R93R96R97H139, R93R96R97R104R105H139
Protocol: as §1, §2

Row | binding of R93R96R97R104R105H139 PCSK9 mutant (immunoprecipitation) [3] | Molecule | Kd (PCSK9) | serum cholesterol levels [1] | median time of absorption from the digestive tract after an oral dose [2] | plateau of cellular LDLR compared to vehicle control (LDLR in HepG2 cells; dose-dependent, HepG2 cells) | immunoprecipitation of 35S-PCSK9 WT and variants (epitope) [4] | increase of cellular LDLR (LDLR in HepG2 cells; mAbs, 1:10 dilution of conditioned hybridoma media)
1 |  | pentosan [pentosan sulfate] | 381 µM | decreased serum cholesterol levels | 2 h | around 400% |  | 
2 | not able to bind this mutant | B1 |  |  |  |  | recognize only WT PCSK9; also recorded: recognize epitopes within the HSPG binding domain | approximately two fold
